Here are results for 18 compounds from ChEMBL document CHEMBL5579898, “Between Theory and Practice: Computational/Experimental Integrated Approaches to Understand the Solubility and Lipophilicity of PROTACs” (J Med Chem, 2024).

Converted amounts (≈) assume the structure as drawn.

Assay type in all cases: physicochemical
Series [1] is described as follows: Kinetic solubility of the compound in universal buffer at pH 7.4 incubated for 60 mins under shaking condition by UHPLC-MS analysis. The following applies: read-out: Kinetic_solubility.
A short description of series [2]: Kinetic solubility of the compound in PBS buffer at 50 mM pH 7.4 incubated for 60 mins under shaking condition by UHPLC-MS analysis. The conditions noted are these: read-out: Kinetic_solubility.
A short description of series [3]: Kinetic solubility of the compound incubated for 60 mins under shaking condition by UV-Vis spectroscopic analysis. The following applies: 1 h.
A short description of series [4]: Kinetic solubility of the compound incubated for 60 mins under shaking condition by UHPLC-MS analysis. The conditions noted are these: 1 h.
Series [5] can be described thus: Distribution coefficient, logD of compound in n-Octanol/PBS at pH 7.4 incubated for 30 mins under shaking condition by UV-Vis spectroscopic analysis. The following applies: for logD: octanol/water, pH 7.4, 0.5 h, BLD = below limit of detection; for logD at 0.5 h: n-octanol/PBS, pH 7.4.
Series [6] in a line: Distribution coefficient, logD of compound in n-Octanol/PBS at pH 7.4 incubated for 30 mins under shaking condition by UHPLC-MS analysis.
Series [7] is described as follows: Dissociation constant, pKa of the compound.

By logD is commonly meant the decadic logarithm of the distribution of all forms, ionised or not, between an organic phase and buffer at a given pH. As to `Cc1ncsc1-c1ccc([C@H](C)NC(=O)[C@@H]2C[C@@H](O)CN2C(=O)[C@@H](NC(=O)CCCCNC(=O)COc2c(-c3csc(N4CCOCC4)n3)ccc(F)c2F)C(C)(C)C)cc1`, the solubility kinetic at 1 h amounted to 12 µM (≈ 10.6 µg/mL) in series [1] and 17 µM (≈ 15 µg/mL) in series [2]. The “log(Kinetic_solubility)” value in series [3] and in series [4] was -4.72 throughout. For the same compound, the logD result in series [5] is “Bld”. The compound also displayed a logD at 0.5 h in series [6] of 4.98.
As a reminder, the pKa is the pH at which an ionisable group is half protonated. For the compound `Cc1sc2c(c1C)C(c1ccc(Cl)cc1)=N[C@@H](CC(=O)NCCCCCCCCNc1cccc3c1C(=O)N(C1CCC(=O)NC1=O)C3=O)c1nnc(C)n1-2` (stereo partly drawn), the solubility kinetic at 1 h in series [1] amounted to 0.05 µM (≈ 0.0392 µg/mL). Moreover, the “log(Kinetic_solubility)” value in series [3] (BLD = below limit of detection) is reported as “Bld”; in series [4], -7.33. The logD result in series [5] is on record as “Bld”. Moreover, in series [7], the pKa was found to be 7.98. Further, the logD at 0.5 h in series [6] amounted to 5.5.
Regarding `CCOC(=O)c1c(C)n(Cc2ccccc2)c2ccc(OCC(=O)NCCCC(=O)N[C@H](C(=O)N3C[C@H](O)C[C@H]3C(=O)N[C@@H](C)c3ccc(-c4scnc4C)cc3)C(C)(C)C)cc12`, the “log(Kinetic_solubility)” value in series [3] (BLD = below limit of detection) is listed as “Bld”; in series [4] it was -6.23. In addition, in series [5], the logD entry is reported as “Bld”. Moreover, the logD at 0.5 h in series [6] stood at 5.1.
For `O=C(CCCCCCCCCCC(=O)N1CCN(C(=O)c2cc(Cc3n[nH]c(=O)c4ccccc34)ccc2F)CC1)NCCNc1cccc2c1C(=O)N(C1CCC(=O)NC1=O)C2=O` (stereo not drawn), the results for the “log(Kinetic_solubility)” value in series [3] (BLD = below limit of detection) and in series [4] were “Bld” and -6.13, respectively. In addition, the logD at 0.5 h is 3.48 in series [5] and 3.64 in series [6].
For the compound `O=C1CCC(N2C(=O)c3cccc(NCCOCCOCC(=O)N4CCN(C(=O)c5cc(Cc6n[nH]c(=O)c7ccccc67)ccc5F)CC4)c3C2=O)C(=O)N1` (stereo not drawn), the “log(Kinetic_solubility)” value is on record as -4.16 in series [3] and -4.19 in series [4]. Besides, the logD at 0.5 h was 0.867 in series [5] and 1.27 in series [6].
With `Cc1ncsc1-c1ccc([C@H](CC(=O)NCCCCCCNC(=O)COc2c(-c3csc(N4CCOCC4)n3)ccc(F)c2F)NC(=O)[C@@H]2C[C@@H](O)CN2C(=O)[C@@H](NC(=O)C2(F)CC2)C(C)(C)C)cc1`, the “log(Kinetic_solubility)” value in series [3] is -5; in series [4], -5.14. Further, the logD entry in series [5] is reported as “Bld”. In series [6], this compound showed a logD at 0.5 h of 4.82.
`Cc1ncsc1-c1ccc([C@H](C)NC(=O)[C@@H]2C[C@@H](O)CN2C(=O)[C@@H](NC(=O)CCCCn2cc(CN3CCN(C(=O)C[C@@H]4N=C(c5ccc(Cl)cc5)c5c(sc(C)c5C)-n5c(C)nnc54)CC3)nn2)C(C)(C)C)cc1`: the “log(Kinetic_solubility)” value in series [3] is listed as -4.54; in series [4], -4.68. Moreover, the logD at 0.5 h in series [5] came out at 3.81; in series [6] it was 4.12.
In the case of `Cc1ncsc1-c1ccc([C@H](C)NC(=O)[C@@H]2C[C@@H](O)CN2C(=O)[C@@H](NC(=O)CNCCOCCOc2c(-c3csc(N4CCOCC4)n3)ccc(F)c2F)C(C)(C)C)cc1`, the “log(Kinetic_solubility)” value in series [3] is on record as -4.82; in series [4], -5.22. Also, the logD entry in series [5] is given as “Bld”. Further, the logD at 0.5 h in series [6] worked out at 5.2.
Consider `Cc1ncsc1-c1ccc([C@H](C)NC(=O)[C@@H]2C[C@@H](O)CN2C(=O)[C@@H](NC(=O)COCCOCCOCC(=O)N[C@H](C(=O)N2C[C@H](O)C[C@H]2C(=O)N[C@@H](C)c2ccc(-c3scnc3C)cc2)C(C)(C)C)C(C)(C)C)cc1`, for which the “log(Kinetic_solubility)” value in series [3] is recorded as -4.21; in series [4], -4.23. For the same compound, the logD at 0.5 h came out at 3.5 in series [5] and 3.9 in series [6].
As to `COc1ccc2c(c1)c(CC(=O)NCCCCCCC(=O)N[C@H](C(=O)N1C[C@H](O)C[C@H]1C(=O)N[C@@H](C)c1ccc(-c3scnc3C)cc1)C(C)(C)C)c(C)n2C(=O)c1ccc(Cl)cc1`, the figures for the “log(Kinetic_solubility)” value in series [3] (BLD = below limit of detection) and in series [4] were “Bld” and -7.34, respectively. For the same compound, in series [5], the logD result is recorded as “Bld”. Besides, the logD at 0.5 h in series [6] was found to be 5.6.
On to `Cc1ncsc1-c1ccc([C@H](C)NC(=O)[C@@H]2C[C@H](O)CN2C(=O)[C@@H](NC(=O)COCCOCCOCC(=O)N[C@H](C(=O)N2C[C@@H](O)C[C@H]2C(=O)N[C@@H](C)c2ccc(-c3scnc3C)cc2)C(C)(C)C)C(C)(C)C)cc1`, for which the results for the “log(Kinetic_solubility)” value in series [3] and in series [4] were -4.62 and -4.66, respectively. For the same compound, the logD at 0.5 h in series [5] came to 3.74; in series [6] it was 3.5.
For `COc1cc(C(=O)NCCCCCCNC(=O)COc2c(-c3csc(N4CCOCC4)n3)ccc(F)c2F)ccc1NC(=O)[C@@H]1N[C@@H](CC(C)(C)C)[C@](C#N)(c2ccc(Cl)cc2F)[C@H]1c1cccc(Cl)c1F`, the “log(Kinetic_solubility)” value in series [3] (BLD = below limit of detection) and in series [4] (BLD = below limit of detection) was “Bld” each time. The logD at 0.5 h in series [5] is 3.7; in series [6], 4.
Turning to `COc1ccc2c(c1)c(CC(=O)N1CCN(CCOCCOCC(=O)N[C@H](C(=O)N3C[C@H](O)C[C@H]3C(=O)N[C@@H](C)c3ccc(-c4scnc4C)cc3)C(C)(C)C)CC1)c(C)n2C(=O)c1ccc(Cl)cc1`, the “log(Kinetic_solubility)” value in series [3] was -5.11; in series [4], -5.22. The logD at 0.5 h in series [5] was 4.1; in series [6], 4.33.
Take `COc1ccc2c(c1)c(CC(=O)N1CCN(CC(=O)N[C@H](C(=O)N3C[C@H](O)C[C@H]3C(=O)N[C@@H](C)c3ccc(-c4scnc4C)cc3)C(C)(C)C)CC1)c(C)n2C(=O)c1ccc(Cl)cc1`: the “log(Kinetic_solubility)” value in series [3] (BLD = below limit of detection) is on record as “Bld”; in series [4], -6.62. The logD entry in series [5] is “Bld”. The logD at 0.5 h in series [6] came to 5.3.
Consider `Cc1ncsc1-c1ccc(CNC(=O)[C@@H]2C[C@@H](O)CN2C(=O)[C@@H](NC(=O)COCCOCCOCC(=O)N[C@H](C(=O)N2C[C@H](O)C[C@H]2C(=O)NCc2ccc(-c3scnc3C)cc2)C(C)(C)C)C(C)(C)C)cc1`, for which the “log(Kinetic_solubility)” value in series [3] is reported as -3.93; in series [4] it was -3.98. Further, the logD at 0.5 h in series [5] was 3.7; in series [6], 3.19.
As for `Cc1sc2c(c1C)C(c1ccc(Cl)cc1)=N[C@@H](CC(=O)NCCCN1CCN(CCCNc3cccc4c3C(=O)N(C3CCC(=O)NC3=O)C4=O)CC1)c1nnc(C)n1-2` (stereo partly drawn), the solubility kinetic at 1 h in series [1] was found to be 71 µM (≈ 59.6 µg/mL). The entries for the “log(Kinetic_solubility)” value in series [3] and in series [4] were -4.15 and -5.15, respectively. Further, the values for the logD at 0.5 h in series [5] and in series [6] were 3.3 and 3.82, respectively. The compound further came in with a pKa in series [7] of 4.49.
Turning to `O=C(COc1c(-c2csc(N3CCOCC3)n2)ccc(F)c1F)NCCOCCOCCOCCOCCNc1cccc2c1C(=O)N(C1CCC(=O)NC1=O)C2=O` (stereo not drawn), the “log(Kinetic_solubility)” value in series [3] and in series [4] was -4.28 throughout. Besides, the logD at 0.5 h in series [5] and in series [6] was 2.82 in each case.
Regarding `Cc1ncsc1-c1ccc([C@H](C)NC(=O)[C@@H]2C[C@@H](O)CN2C(=O)[C@@H](NC(=O)CCCCn2cc(COc3c(-c4csc(N5CCOCC5)n4)ccc(F)c3F)nn2)C(C)(C)C)cc1`, the “log(Kinetic_solubility)” value in series [3] is reported as -5; in series [4], -5.14. Moreover, in series [5], the logD entry is “Bld”. In series [6], this compound showed a logD at 0.5 h of 4.99.
